Experimental data from patent publication US20100183645A1, “ACTIVE OR PASSIVE IMMUNIZATION AGAINST PROAPOPTOTIC NEUROTROPHINS FOR THE TREATMENT AND/OR PREVENTION OF NEURODEGENERATIVE DISEASES” (INSTITUT PASTEUR, priority 2003, published 2010).

Experiments:
[1] = tested on: motor neurons plated on astrocyte monolayers; assay: Motor neuron survival in astrocyte-motor neuron co-cultures; format: cell-based, rat; settings: for Motor neuron survival, percentage of control: co-cultures treated with NGF, mean±SD
Experimental: Cell cultures and treatments. […] Astrocytes were plated at a density of 2×10^4 cells/cm^2 and maintained in DMEM supplemented with 10% fetal bovine serum, HEPES (3.6 g/l), penicillin ([…]) and streptomycin (100 μg/ml).
For co-culture experiments, motor neurons were plated on astrocyte monolayers at a density of 300 cells/cm^2 and maintained in L15 medium supplemented with 0.63 mg/ml bicarbonate, 5 μg/ml insulin, 0.1 mg/ml conalbumin, 0.1 mM putrescine, 30 nM sodium selenite, 20 nM progesterone, 20 mM glucose, 100 IU/ml penicillin, 100 μg/ml streptomycin, and 2% horse serum. Drugs and blocking antibodies were added 3 h after plating at the indicated concentrations.
Treatments with peroxynitrite and LPS. Peroxynitrite was generously provided by Dr. Rafael Radi (UDELAR, Uruguay) and its concentration determined spectrophotometrically at 302 nm (e=1700 M^−1 cm^−1). Confluent astrocyte monolayers were washed with Dulbecco's phosphate-buffered saline (PBS), supplemented with 0.8 mM MgCl2, 1 mM CaCl2, and 5 mM glucose, and then incubated in 1 ml of 50 mM Na2HPO4, 90 mM NaCl, 5 mM KCl, 0.8 mM MgCl2, 1 mM CaCl2, and 5 mM glucose, pH 7.4. Finally, three additions of 5 μL bolus of peroxynitrite were made to reach the final concentration of 0.5 mM. Five minutes after peroxynitrite exposure, the buffer was removed and replaced with L15 medium, supplemented as described above. In co-culture experiments, motor neurons were plated 1 h after peroxynitrite exposure. […] LPS (from E. coli 026-B6 Cat. No L2654 Sigma) was directly applied to astrocyte monolayers 24 h before and immediately after plating of motor neurons in coculture experiments.

[2] = tested on: pure motor neuron cultures; assay: Motor neuron survival in pure motor neuron cultures maintained with GDNF; format: cell-based, rat; settings: for Motor neuron survival with peroxynitrite-treated neurotrophin: without exogenous nitric oxide, GDNF 1 ng/ml, 48 h
Experimental: Purified motor neuron cultures were plated at a density of 300 cells/cm^2 in dishes precoated with polyornithinelaminin and maintained in Neurobasal medium supplemented with 2% horse serum, […] L-glutamate, 25 μM β-mercaptoethanol, 0.5 mM L-glutamine, and 2% B-27 supplement (Gibco-Invitrogen). Blocking antibodies were added 3 h after plating at the indicated dilutions. The generation of a low steady state concentration (<50 nM) of nitric oxide was generated by the spontaneous deassociation of 10 μM DETA-NONate (Cayman).
To assess the pro-apoptotic activity of conditioned media, astrocyte monolayers were incubated for 24 h in Neurobasal medium supplemented as described above, and that medium immediately used to replace the medium of pure motor neuron cultures established 24 h before. Blocking antibodies and DETA-NONOate were added to the conditioned media and motor neuron survival determined after 48 h.
To assess the pro-apoptotic activity in spinal cord extracts, lumbar cords were dissected from 90 day-old G93A mice or non-transgenic littermates over ice under sterile conditions. To 100 mg of tissue were added 0.4 ml of PBS containing 3 mM EGTA, 1 mM EDTA, 0.5 μg/ml aprotinin, 0.5 μg/ml pepstatin and 0.1 mM PMSF at 0° C., and the tissue was then homogenized under sterile conditions. Homogenates were centrifuged at 40,000 g for 1 hr and the clear supernatants collected and kept at −80° C. until used. Aliquots were added to motor neuron cultures to reach a final protein concentration of 0.5 μg/ml. In all cases, blocking antibodies and drugs were added 3 h after motor neuron plating. The generation of a steady state concentration (<50 nM) of nitric oxide was obtained by the spontaneous disassociation of 10 μM NOC-18 (Dojindo, Gaithersburg).
Cell counts. Motor neuron survival was assessed by directly counting all cells displaying intact neurites longer than 4 cells in diameter following immunostaining against p 75NTR Counts were performed over an area of 2.76 cm^2 in the center of 35 mm dishes or in an area measuring 0.90 cm^2 along a diagonal in 24-well plates (Cassina et al., 2002). The mean density of motor neurons in control cocultures was 90±4 cells/cm^2.
Protocol for preparation of muscle extracts and western blotting. Quadriceps muscles were dissected from symptomatic G93A SOD1 or non transgenic littermate mice over ice under sterile conditions. To 1 g of tissues was added 4 ml of PBS containing 3 mM EGTA, 1 mM EDTA, 0.5 mg/ml aprotinin, 0.5 mg/ml pepstatin and 0.1 mM PMSF at 0° C., and the tissue was homogenized under sterile conditions. Homogenates were centrifuged at 40,000 g for 1 hr and the clear supernatants collected and kept at −80° C. until used. Quadriceps were homogenized in lysis buffer containing 2 mM EDTA, 1% SDS, 1 mM PMSF, 10 μg/ml aprotinin, 1 μg/ml leupeptin and 0.5 mM sodium vanadate. Protein quantification was performed using the BCA Protein Assay Reagent kit (Pierce Biotechnology). The samples were prepared in Laemmli buffer supplemented with […] and proteins were transferred to nitrocellulose membrane (Amersham). Membranes were blocked for 2 h in blocking buffer (5% BSA, 0.1% Tween 20 in Tris-buffered saline (TBS), pH 7.4) followed by an over-night incubation with the primary antibody diluted in blocking buffer. […]

[3] = tested on: cultured spinal cord astrocytes; assay: ELISA determination of NGF secreted by cultured spinal cord astrocytes; format: cell-based, rat; settings: peroxynitrite 0.5 mM
Experimental: Cell cultures and treatments. Primary astrocyte cultures were prepared from the spinal cords of rats aged 1-2 days according to the procedures of Saneto and De Vellis (1987), with minor modifications (Cassina et al., 2002). Astrocytes were plated at a density of 2×10^4 cells/cm^2 and maintained in DMEM supplemented with 10% fetal bovine serum, HEPES (3.6 g/l), penicillin ([…]) and streptomycin (100 μg/ml). The astrocyte monolayers were >98% pure as determined by GFAP immunoreactivity and were devoid of OX42-positive microglial cells.
Treatments with peroxynitrite and LPS. Peroxynitrite was generously provided by Dr. Rafael Radi (UDELAR, Uruguay) and its concentration determined spectrophotometrically at 302 nm (e=1700 M^−1 cm^−1). Confluent astrocyte monolayers were washed with Dulbecco's phosphate-buffered saline (PBS), supplemented with 0.8 mM MgCl2, 1 mM CaCl2, and 5 mM glucose, and then incubated in 1 ml of 50 mM Na2HPO4, 90 mM NaCl, 5 mM KCl, 0.8 mM MgCl2, 1 mM CaCl2, and 5 mM glucose, pH 7.4. Finally, three additions of 5 μL bolus of peroxynitrite were made to reach the final concentration of 0.5 mM. […]
Determination of NGF/proNGF. The NGF protein concentration in the culture medium from astrocytes or spinal cord extracts was quantified using the NGF Emax ImmunoAssay System kit (Promega) following the manufacturer's instructions.

[4] = tested on: G93A SOD-1 transgenic mice; assay: ALS-like disease progression and survival after systemic immunization against NGF; format: in vivo
Text: Systemic immunization against NGF on ALS-like disease progression and survival in transgenic mouse overexpressing mutant G93A-SOD1 gene. Animals. The transgenic mouse line overexpressing mutant G93A-SOD1 gene [TgN(SOD1-G93A)1Gur, a high expression mouse line] and the mating pairs were purchased from Jackson laboratory (Bar Harbor, Me., USA). Mice were housed and bred as described previously (Gurney et al. 1994) in accordance with the Institutional Animal Care guidelines.
Immunization protocol. Adult, female, 40-50 day-old mice, initially weighing 18-24 g, were used for these experiments. Mice were group-housed 5 mice per cage and allowed free access to food and water. For testing, a total of 10 mice per group were autoimmunized against NGF. Each received […] of 25 μg of 2.5S mouse NGF (Harlam, USA) in 0.1 ml of a suspension of aluminum phosphate used as adjuvant. A second injection of 2.5S NGF (50 μg) in the same adjuvant was given 3 weeks later. Non-transgenic and vehicle-injected mice served as control animals for survival tests.
Analysis of ALS-like disease progression and survival in transgenic mouse. Mice were examined daily for paralysis, disease progression and survival analysis. The initial symptoms of hind leg paralysis or failure to remain suspended in an inverted grid were considered as the disease progression threshold. Mice were killed at terminal stage, i.e. severely paralysis and inability to seek food and water.

Molecule: COC(=O)CC[C@H](NC(=O)[C@H](CC(=O)OC)NC(=O)OCc1ccccc1)C(=O)N[C@H](C(=O)N[C@@H](CC(=O)OC)C(=O)CF)C(C)C [DEVD-fmk]
- Prevention of NGF-induced motor neuron death by caspase inhibitors ([1]; co-culture, 10 μM added every 24 hours): prevented

Molecule: CC(=N)NCCCC[C@H](N)C(=O)O [LNIL, L-N6-(1-Iminoethyl)-lysine]
- Prevention of motor neuron apoptosis induced by NGF ([1]; co-culture, 10 μM, 72 h): significantly prevented

Molecule: CCCNC(=N)NCCC[C@H](N)C(=O)O [NPLA, N5[Imino(propylamino)methyl]-Lornithine; Nu-Propyl-L-arginine]
- Prevention of motor neuron apoptosis induced by NGF ([1]; co-culture, 10 μM, 72 h): significantly prevented
- Motor neuron survival, percentage of control ([1]; inhibitor 10 μM, 72 h): 110.4±9.2%

Molecule: [N]=O [Nitric oxide, reference compound]
- Motor neuron survival, nitric oxide alone ([2]; <50 nM from 10 μM NOC-18, without NGF): did not affect motor neuron survival

Molecule: FC(F)(F)c1ccccc1-n1ccnc1 [TRIM, 1-(2-Trifluoromethylphenyl)imidazole]
- Prevention of motor neuron apoptosis induced by NGF ([1]; co-culture, 10 μM, 72 h): significantly prevented

Molecule: N=C(N)NN [aminoguanidine]
- Prevention of motor neuron apoptosis induced by NGF ([1]; co-culture, 50 μM, 72 h): significantly prevented
- Motor neuron survival, percentage of control ([1]; inhibitor 50 μM, 72 h): 87.0±8.0%

Molecule: O=NOO [peroxynitrite]
- Increase of NGF secretion to the culture medium ([3]; 24 hours after treatment, LPS 1 μg/ml): ~9 fold
- NGF concentration in conditioned culture media versus controls ([3]; after 3 days): 5 fold

Molecule: Oc1nc(O)c2nc(O)[nH]c2n1 [urate]
- Prevention of the effects of NGF on motor neurons ([1]; co-culture, 200 μM, 72 h): prevented

B1: peroxynitrite-treated NGF: NGF oxidised by peroxynitrite, forming high molecular weight NGF aggregates (protein)
chain: SSTHPVFHMGEFSVCDSVSVWVGDKTTATDIKGKEVTVLAEVNINNSVFRQYFFETKCRASNPVESGCRGIDSKHWNSYCTTTHTFVKALTTDEKQAAWRFIRIDTACVCVLSRKATRRG
- Motor neuron survival with peroxynitrite-treated neurotrophin [2]: Decreased motor neuron survival

B2: NGF: mouse NGF (2.5S) from Harlan; nerve growth factor, also the immunogen in aluminum phosphate adjuvant (protein)
chain: B1 chain
- Tolerability of NGF autoimmunization ([4]; all NGF autoimmunized mice): gained weight and did not display any signs of discomfort
- Delay of survival versus mice injected with adjuvant only ([4]; female G93A mice, NGF in aluminum phosphate s.c., in average): 10 to 15 days
- Disease onset ([4]; in most of the NGF autoimmunized mice): delayed
- Motor neuron apoptosis in the presence of nitric oxide ([2]; NGF 100 ng/ml, nitric oxide <50 nM from 10 μM NOC-18): induce motor neuron apoptosis
- Survival of motor neurons maintained with GDNF ([2]; NGF 100 ng/ml, no nitric oxide donor): no effect
- Motor neurons with fewer neurites, immunoreactive for nitrotyrosine and cleaved caspase-3 ([1]; NGF 100 ng/ml, after 24 h in culture): Approximately 50%
- Survival of motor neurons cultured on unstimulated astrocytes ([1]; NGF 0.1-100 ng/ml, 72 h): reduced in a dose-dependent manner
- Motor neuron survival after pre-incubation of the astrocyte monolayer ([1]; NGF removed before neuron plating): no effect
- Subset of motor neurons vulnerable to NGF in culture ([1]; co-cultures): ~40%

B3: BDNF treated with peroxynitrite: brain-derived neurotrophic factor treated with peroxynitrite by the identical protocol (protein, UniProt P23560 129-247, looked up)
Neurotrophic factor BDNF: HSDPARRGELSVCDSISEWVTAADKKTAVDMSGGTVTVLEKVPVSKGQLKQYFYETKCNPMGYTKEGCRGIDKRHWNSQCRTTQSYVRALTMDSKKRIGWRFIRIDTSCVCTLTIKRGR
modifications: Neurotrophic factor BDNF peroxynitrite-treated
notes: brain-derived neurotrophic factor treated with peroxynitrite by the identical protocol
- Motor neuron survival with peroxynitrite-treated neurotrophin [2]: induces motor neuron apoptosis
